Results reported in US9410947B2, “Fluorescent dyes and related methods” (University of Washington through its Center for …, priority 2012, dated 2016).
“Also recorded” adds a separate entry of the source. Values belong to the molecule of their own block, whether it stands above or below them.

Assays:
Prorocentrum minimum = assay: Flow cytometric analysis of DNA staining in alga; format: cell-based; conditions: 1% DMSO
Description: In another aspect, this example describes a set of experiments to investigate DANPY-1 dye for use in flow cytometric analysis of DNA. The alga Prorocentrum minimum was selected for these studies. Several controls were run to: (a) ensure that cell integrity was maintained, (b) assess the contribution of unbound DANPY-1 to fluorescent background signals and (c) determine a dye concentration and the intensity of the fluorescent signal when the target DNA is fully saturated with bound dye. The DANPY-1 concentrations that were tested in these preliminary experiments ranged from 7.1 μM to 228 μM. All of the flow cytometric work was performed on an Accuri C6 flow cytometer (BD Scientific, Ann Arbor, Mich.). The excitation wavelength for the FL1, FL2, and FL3 detectors (or channels) is 488 nm and the FL4 laser excites at a wavelength of 640 nm. The fluorescent wavelengths that each channel detects are as follows: FL1 530/30, FL2 585/40, FL3 670 LP and FL4 675/25. These experiments are summarized below (data not shown): […]

Solubility in solvents = format: physicochemical
[1] = in chloroform, extrapolated to zero frequency; cited from earlier work
salmon sperm DNA = assay: Photometric (colorimetric) titration of dye solutions with DNA, Scatchard / n-K fit; format: binding
Procedure: Dye/DNA binding was assessed. The binding constant and number of dye molecules bound per base pair were assessed by means of photometric titrations (Peacocke, A. R.; Skerrett, J. N. H., Trans. Faraday Soc. 1956, 52, 261, Angerer, L. M.; Moudrianakis, E. N., J. Mol. Bio. 1972, 63, 505-521) of dye solutions with commercially available salmon sperm DNA (Sigma Aldrich, MW 50 kD to 100 kD) in 10 mM TE buffer at pH 7.2. Experiments were run using a temperature-controlled Ocean Optics diode array spectrophotometer at 25.0° C., with 2.5 mL of dye solution at a concentration sufficient for an initial optical density near 0.75, adding 1.5 mM DNA solution in 30 μL aliquots.
This example describes affinity of DANPY-1 to DNA. […] These experiments were analyzed using the Scatchard equation (Scatchard, G., Ann. N.Y. Acad. Sci. 1949, 51, 662-672.) […]
A titration methodology was also used. Dyes were evaluated for their DNA-binding properties by means of colorimetric titrations in buffered aqueous solution (1×TE buffer titrated to pH 7.2 with HCl). […] After allowing the solution to mix for about one minute, the stirrer was stopped and a spectrum was recorded. If the initial absorbance of the dye was ≧1, the dye solution was diluted with the appropriate solvent (TE buffer, methanol, or butanol) until the initial absorbance was <1. […] The reduced absorbance change […]

[2] = QCM-D binding study, bare SiO2 control; conditions: pH 7.2 1×TE buffer, 298 K
Description: (§1) In yet another aspect, the present disclosure includes methods for quantifying nucleic acid molecules in a sample. For example, the present disclosure can include a method of determining a quantity of a nucleic acid molecule in a sample using the Quartz Crystal Microbalance with Dissipation Monitoring (QCM-D) method. QCM-D can be used to determine the formation of films (e.g., nm in thickness). For example, films may be formed on a surface from proteins, polymers, surfactants and cells. QCM-D can detect films formed in liquid and may be used to determine binding kinetics of, for example, cationic dyes (e.g., ethidium bromide, DANPY-1 and/or DAST). For example, a Q-Sense instrument (e.g., a Q-Sense E4 instrument, Biolin Scientific AB, Stockholm) can be used for QCM-D using a dedicated set of QCM sensors (e.g., SiO2-coated). The procedures of cleaning, deposition, mass monitoring, and preparing nucleic acid for QCM-D are known. (R. J. Rawle, C. R. D. Selassie, M. S. Johal, Langmuir 2007, 23, 9563-9566). Data can be output as kinetics that can include structural changes and mass changes. The crystals can be, for example, coated with a polyethylene imine (PEI) layer to enable binding of anionic nucleic acids. The crystals can be, for example, coated with a polymer polystyrene sulfonate (PSS), that only undergoes loose electrostatic binding. […]

[3] = QCM-D binding study, PEI layer
Description: The three nucleic acids (e.g., single-stranded DNA (ssDNA), double-stranded DNA (dsDNA), and transfer RNA (tRNA)) used in this example are anionic. The crystals were coated with a polyethylene imine (PEI) layer to create a surface and enable binding of the nucleic acids. […] Polystyrene sulfonate (PSS) was used as a control polymer. As controls, PSS which can only undergo loose electrostatic binding, and bare SiO2 were used. Any materials used for coating were allowed to deposit until a stable mass was reached (e.g., for five minutes) followed by five minutes of rinsing with buffer between each layer; (1) PEI or PSS, (2) nucleic acid and (3) the dye. After deposition, the film was rinsed with buffer for ten minutes. If the adsorbed mass returned to near the form immediately prior to the addition of the dye, then remained stable, the binding was characterized as reversible. Binding was characterized as irreversible if the mass remained constant after rinsing or leveled off at a substantially higher value than before the dye was added.

tRNA = assay: QCM-D binding study, tRNA layer; conditions: pH 7.2 1×TE buffer, 298 K, 0.3 mL/min, rinse ten minutes
Description: as §1

dsDNA = assay: QCM-D binding study, dsDNA layer; design: species or system salmon; conditions: pH 7.2 1×TE buffer, 298 K, 0.3 mL/min, rinse ten minutes
Description: as §1

[4] = QCM-D binding study, PSS control polymer; conditions: pH 7.2 1×TE buffer, 298 K
Description: as §1

ssDNA = assay: QCM-D binding study, ssDNA layer; design: species or system salmon; conditions: pH 7.2 1×TE buffer, 298 K, 0.3 mL/min, rinse ten minutes
Description: as §1

- cell concentration (Prorocentrum minimum; 7.1 μM dye, 10 minute exposure): 1.02e5 cells/mL
- impact on cell integrity (Prorocentrum minimum; 7.1 μM dye, 10 minute exposure): no impact on cell integrity
- cell concentration (Prorocentrum minimum; 57 μM dye, 10 minute exposure): 9.5e4 cells/mL
- impact on cell integrity (Prorocentrum minimum; 57 μM dye, 10 minute exposure): no impact on cell integrity
- mean FU intensity FL-1 channel (Prorocentrum minimum; 57 μM dye, FL1 530/30, ex 488 nm): 17951 FU
- mean FU intensity FL-2 channel (Prorocentrum minimum; 57 μM dye, FL2 585/40, ex 488 nm): 167481 FU
- cell concentration (Prorocentrum minimum; 228 μM dye, 10 min exposure): 8.1e4 cells/mL
- impact on cell integrity (Prorocentrum minimum; 228 μM dye, 10 min exposure): some impact on cell integrity
- solubility in standard spin-coating solvents (Solubility in solvents; TCE and cyclopentanone): poorly soluble
- solubility in butanol (Solubility in solvents; butanol): poorly soluble
- solubility in lower alcohols (Solubility in solvents; methanol, ethanol, and n-propanol): highly soluble
Molecule: CC(=O)[O-].CN(C)c1ccc2cc(-c3cc[n+](C)cc3)ccc2c1 [DANPY-1, dimethylaminonaphthylpyridinium]
- mean fluorescent intensity FL-1 channel (Prorocentrum minimum; 7.1 μM dye, FL1 530/30, ex 488 nm): 6032
- mean fluorescent intensity FL-2 channel (Prorocentrum minimum; 7.1 μM dye, FL2 585/40, ex 488 nm): 40801
- mean fluorescent intensity FL-1 channel (Prorocentrum minimum; 228 μM dye, FL1 530/30, ex 488 nm): 26131
- mean fluorescent intensity FL-2 channel (Prorocentrum minimum; 228 μM dye, FL2 585/40, ex 488 nm): 412988

- solubility in water (Solubility in solvents; water): not sufficiently soluble
Molecule: CCN(CCO)c1ccc(N=Nc2ccc([N+](=O)[O-])cc2)cc1 [DR1, Disperse Red 1]
- static hyperpolarizability βzzz(0) [1]: 54±5 10^−30 esu
- change in the absorbance peak on titration with DNA (salmon sperm DNA; 1:1 TE buffer and ethanol): no substantial change in the absorbance peak

Molecule: trans-4-[4-(Dimethylamino)styryl]-1-methylpyridinium toluenesulfonate [DAST]
- QCM-D binding to SiO2 [2]: Reversible
- QCM-D binding to PEI layer [3]: did not bind
- QCM-D binding to tRNA (tRNA): did not interact strongly; also recorded: Reversible
- shift in absorbance maximum upon addition of DNA (salmon sperm DNA; TE buffer): exhibited a shift in absorbance maximum
- QCM-D binding to dsDNA (dsDNA): did not interact strongly and None
- QCM-D binding to PSS [4]: interacted strongly; also recorded: Partially
- QCM-D binding to ssDNA (ssDNA): interacted strongly; also recorded: Irreversible
